Active and inactive are the calls of the source.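 The calls were made as follows: active = AC50, the dose giving half-maximal effect, exceeds a fixed cutoff for a compound that rescues yeast growth under heat; inactive = the rest, inconclusive results apart.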
System: S. cerevisiae Burl-1 ts mutant growth, BacTiter-Glo, 38.5C 24 h
Assay: restored growth of temperature-sensitive Burl-1 yeast – whole organism, S. cerevisiae, Burl-1 ts mutant, luminescence, counter-screen for SUMOylation pathway inhibitor project, dose response (AID 463199)

Compound	AC50
C=CCn1cc(C(C)=O)c(=O)[nH]c1=O	> 42 µM (inactive)
COc1ccc2c(CC(=O)Nc3ccc(OC)c(NS(=O)(=O)c4ccc(F)cc4)c3)coc2c1	> 42 µM (inactive)
COc1ccc(-c2cc(CC3(C(=O)O)CCN(C(=O)OC(C)(C)C)CC3)on2)c(OC)c1	> 42 µM (inactive)
CNC(=O)COC(=O)c1cc(-c2ccco2)nc2ccccc12	> 42 µM (inactive)
CCCCn1c(N)c(N(CC(C)C)C(=O)c2cc(-c3ccc(F)cc3)nc3ccccc23)c(=O)[nH]c1=O	> 42 µM (inactive)
Cc1ccc(/C=C2\SC(N3CCCC3)=NC2=O)cc1	> 42 µM (inactive)
CSc1nsc(SCC(=O)Nc2cccc(C(=O)O)c2)n1	> 42 µM (inactive)
O=C(NCc1nc(-c2ccccc2)no1)c1cccs1	> 42 µM (inactive)
O=C(NCc1cccc(F)c1F)C1CCC(=O)N(C2CC2)C1 (stereo not drawn)	> 42 µM (inactive)
COc1ccc(N=C2SC(C(=O)O)CC(=O)N2Cc2ccc(OC)c(OC)c2)cc1 (stereo not drawn)	> 42 µM (inactive)
Fc1cccc(NC(=S)N2CCn3cccc3C2c2cccnc2)c1 (stereo not drawn)	> 42 µM (inactive)
CC1Cc2ccccc2N1C(=O)CNc1cccc(S(=O)(=O)N2CCCC2)c1 (stereo not drawn)	> 42 µM (inactive)
COc1ccccc1CNc1ncnc2nc[nH]c12	> 42 µM (inactive)
CCn1c(SCC(N)=O)nnc1-c1cc2c(C)nn(-c3ccccc3)c2s1	> 42 µM (inactive)
Cc1cc(/C=C2\C(=O)NC(=O)N(c3ccccc3F)C2=O)c(C)n1-c1cc(C(=O)O)cc(C(=O)O)c1	> 42 µM (inactive)
Cc1ccccc1-n1ncc2c([N+](=O)[O-])cc([N+](=O)[O-])cc21	> 42 µM (inactive)
CN1C(=O)C(=Cc2cn(CC(=O)N3CCCC3)c3ccccc23)C(=O)N(C)C1=O	> 42 µM (inactive)
Cc1sc(NC(=O)c2ccc(Br)s2)c(C(N)=O)c1C	> 42 µM (inactive)
CCCn1c(N)cc(=O)n(CCC)c1=O	> 42 µM (inactive)
CCOc1ccccc1CN1CCN(Cc2ccon2)CC1CCO (stereo not drawn)	> 42 µM (inactive)
O=C(O)COc1ccc(Br)cc1/C=N\Nc1ccccn1	> 42 µM (inactive)
CC1=CC2=NC(=O)/C(=C\c3cc(C)n(-c4ccccc4)c3C)C(=N)N2O1	> 42 µM (inactive)
Cc1ccc(Nc2cc(C)nc3c(C)ccc([N+](=O)[O-])c23)cc1	> 21 µM (inactive)
COc1cc(C(=O)Oc2cccnc2)cc(OC)c1OC	> 42 µM (inactive)
Oc1ccc(C2=CSC3=NCCN23)cc1O	> 42 µM (inactive)

Compound	AC50
CC1CN(C(=O)c2cc([N+](=O)[O-])cc([N+](=O)[O-])c2)CC(C)O1 (stereo not drawn)	> 42 µM (inactive)
Cc1ccnc(NC(=O)c2ccc(Br)s2)c1	> 42 µM (inactive)
COCCn1c(N)c(N(Cc2ccccc2)C(=O)CN2C(=O)NC(C)(c3ccccc3)C2=O)c(=O)[nH]c1=O (stereo not drawn)	39.8 µM
CN(C)/C=N/NC(=O)c1ccccc1	> 42 µM (inactive)
Cc1ccc(N2CN(CCc3ccccc3)CNC2=S)cc1	> 42 µM (inactive)
O=C(Nc1ncccn1)c1ccc(C(F)(F)F)cc1	> 42 µM (inactive)
O=S(=O)(NCc1ccccc1)c1ccc(S(=O)(=O)N(Cc2ccccn2)Cc2ccco2)cc1	16.7 µM
COCC(=O)n1nc(NCc2ccc(OC)cc2)nc1NCc1ccc(OC)cc1	> 42 µM (inactive)
N#Cc1cc2c(nc1SCc1cccnc1)CCC2	> 42 µM (inactive)
CC1(C)Cc2nc3sc4c(OCc5ccccc5)ncnc4c3cc2CO1	> 42 µM (inactive)
CCOc1ccc(-c2nnc(SCC(=O)N3CCCC3)o2)cc1	> 42 µM (inactive)
COc1cccc(NC(=O)Nc2cc(C(=O)NC(C)C)ccc2N2CC3CC(C2)c2cccc(=O)n2C3)c1 (stereo not drawn)	> 42 µM (inactive)
Cc1cc(-c2ccc(Cl)cc2Cl)c(C#N)c(=O)[nH]1	> 42 µM (inactive)
CCc1noc(C)c1C(=O)Nc1nc(-c2ccc(F)cc2)c(C)s1	> 42 µM (inactive)
CC(c1ccccn1)N(CCN(C)C)C(=S)Nc1cccc(F)c1 (stereo not drawn)	> 42 µM (inactive)
CCC(C)[C@H](NC(=O)OC(C)(C)C)C(=O)NCC1CCC(C(=O)N[C@@H](Cc2ccccc2)C(=O)O)CC1 (stereo partly drawn)	> 42 µM (inactive)
CCCNCC(O)COc1ccccc1C(=O)CCc1ccccc1 (stereo not drawn)	> 42 µM (inactive)
CC(=O)Nc1cccc2c1C(=O)N(c1ccccc1C)C2=O	> 42 µM (inactive)
CC(C)C(CC(=O)NCc1ccco1)c1ccco1 (stereo not drawn)	> 42 µM (inactive)
CCOC(=O)C1(Cc2cccc(F)c2)CCN(C(=O)c2cnccn2)CC1	> 42 µM (inactive)
CCN(CC)c1ccc(/C=N/NC(=O)OC(C)(C)C)cc1	> 42 µM (inactive)
O=C(O)CNS(=O)(=O)Cc1ccccc1	> 42 µM (inactive)
CCN(CC)CCCN(Cc1cc2cc(OC)ccc2[nH]c1=O)C(=O)Nc1ccc(F)cc1	> 42 µM (inactive)
Cc1onc(-c2ccccc2)c1C(=O)N/N=C/C=C/c1ccccc1	> 42 µM (inactive)
C/C(=N\NC(=O)c1cccc(N/N=C(\C)c2ccc([N+](=O)[O-])cc2)c1)c1ccc([N+](=O)[O-])cc1	> 42 µM (inactive)

Compound	AC50
CCC(C)N1C(=O)CN(C2CCCCCC2)C(=O)C1c1ccccc1F (stereo not drawn)	> 42 µM (inactive)
CCOc1ccc(/C=N/NC(=O)c2ccc(CSc3nc4ccccc4[nH]3)cc2)cc1	> 42 µM (inactive)
O=C(NC(=S)NNC(=O)c1ccccc1O)c1cccc([N+](=O)[O-])c1	> 42 µM (inactive)
COc1ccc(OC(=O)c2ccc(Cl)cc2)c(C(C)=O)c1	> 42 µM (inactive)
O=c1[nH]c(=O)n(C2CCCO2)cc1Br (stereo not drawn)	> 42 µM (inactive)
CN=C(Nc1cccnc1)c1ccccc1	> 42 µM (inactive)
COc1ccc(-c2csc(NC(=O)CCS(=O)(=O)c3ccccc3)n2)c(OC)c1	> 42 µM (inactive)
O=C(NC(=S)Nc1ccccc1N1CCCC1)c1ccc([N+](=O)[O-])cc1	> 42 µM (inactive)
O=C(c1cc(-c2ccc(Cl)cc2)n(-c2ccc(Cl)cc2)n1)N1CCOCC1	> 42 µM (inactive)
O=C(NNC(=O)c1csc(N2CCOCC2)n1)c1ccc(Cl)nc1	> 42 µM (inactive)
COc1ccc(C)cc1NC(=O)C12CCC(C)(C(=O)O1)C2(C)C (stereo not drawn)	> 42 µM (inactive)
COc1ccc2c(c1)[C@H]1[C@H](CO2)[C@H](c2ccccc2)[C@]2(C)C(=O)Nc3cc(C)ccc3C(=O)N12	> 42 µM (inactive)
Cc1ccc(C(=O)NC(Cc2c[nH]c3ccccc23)C(=O)O)o1 (stereo not drawn)	> 42 µM (inactive)
CCOc1ccc(C(C(=O)NC2CCCC2)N(C(=O)c2snc(C(N)=O)c2N)C2CCCC2)cc1 (stereo not drawn)	> 42 µM (inactive)
CC(=O)N1c2ccc([N+](=O)[O-])cc2NC(=O)CC1C (stereo not drawn)	> 42 µM (inactive)
CC(NC(=O)c1ccc(Cl)cc1)C(=O)N1CCCCC1 (stereo not drawn)	> 42 µM (inactive)
OC1CN=C2CCCc3c2n(c2ccc(Cl)cc32)C1 (stereo not drawn)	> 42 µM (inactive)
COc1ccccc1NC(=O)CSc1nc(O)c(Cc2ccccc2)c(=O)[nH]1	> 42 µM (inactive)
COc1cc(/C=N/NC(=S)NCc2ccco2)cc(OC)c1OC	> 42 µM (inactive)
CCOc1ncccc1-c1nc(-c2cccs2)no1	> 42 µM (inactive)
Cc1ccc(CN(C)C(=O)c2ccc3c(c2)NC(=O)CS3)o1	> 42 µM (inactive)
Cc1ccc(C(=O)N/C(=C/c2ccccc2)C(=O)NCC2CCCO2)cc1 (stereo not drawn)	> 21 µM (inactive)
c1coc(C2OCC3(CO2)COC(c2ccco2)OC3)c1 (stereo not drawn)	> 42 µM (inactive)
Cc1nc(-c2ccncc2)sc1C(=O)Nc1ccc(Br)cc1	> 42 µM (inactive)
COc1ccccc1-c1nc2ccccc2nc1-c1ccccc1OC	> 42 µM (inactive)

Compound	AC50
CCOC(=O)C1=C(C)NC(C)=C(C(=O)OCC)C1C(=O)OC1CCOC1=O (stereo not drawn)	> 42 µM (inactive)
COc1ccc(-c2csc(Nc3cc(C)ccn3)n2)cc1C	> 42 µM (inactive)
CCOc1ccc(NS(=O)(=O)c2ccc(C(=O)NCc3cccnc3)cc2)cc1	> 42 µM (inactive)
CCCNC(=O)Cn1sc2nc(C)cc(C)c2c1=O	> 42 µM (inactive)
COc1ccc(/C=N/NC(=O)CCC(=O)Nc2ccccc2)cc1OC	> 42 µM (inactive)
CC1CC(C)(C)N2C(=O)C3(Nc4ccccc4S3)c3cccc1c32 (stereo not drawn)	> 42 µM (inactive)
CN(c1ccccc1)S(=O)(=O)c1ccc(C(=O)NCC2CCCO2)cc1 (stereo not drawn)	> 21 µM (inactive)
Cc1ccc(/C(N)=N/OC(=O)/C=C/c2ccccc2)cc1	> 42 µM (inactive)
COc1ccc(S(=O)(=O)N2CCc3cc4c(cc3C2C)OCCCO4)cc1 (stereo not drawn)	> 42 µM (inactive)
CCOc1ccc(N(C(=O)C2CCCO2)C2C=CS(=O)(=O)C2)cc1 (stereo not drawn)	> 42 µM (inactive)
CC(OC(=O)c1cc(S(=O)(=O)N2CCOCC2)ccc1F)C(=O)NCc1ccc2c(c1)OCO2 (stereo not drawn)	> 42 µM (inactive)
COc1ccccc1N1CCN(C(=O)c2sc3ncnc(N4CCN(c5ccccn5)CC4)c3c2C)CC1	> 42 µM (inactive)
Nc1cc(-c2ccc(Cl)cc2)nn1S(=O)(=O)c1ccc(Cl)cc1	> 42 µM (inactive)
CC(C(=O)Nc1ccccc1-c1ccccc1)N1CCN(Cc2ccccc2)CC1 (stereo not drawn)	> 42 µM (inactive)
c1ccc2c(c1)OCCOCCOc1ccccc1OCCOCCO2	> 42 µM (inactive)
Cn1c(=NC(=O)COc2ccccc2)sc2cc(F)cc(F)c21	> 42 µM (inactive)
CC(=O)C1(c2ccccc2)CCNCC1	> 21 µM (inactive)
O=C(O)C1C(C(=O)O)C2(Cl)C(Cl)=C(Cl)C1(Cl)C2(Cl)Cl (stereo not drawn)	> 42 µM (inactive)
CN(C)/C(CN1CCCCC1)=C1\N=C(c2ccccc2)OC1=O	> 42 µM (inactive)
O=C(CCN1C(=O)S/C(=C/c2ccccc2)C1=O)Nc1ccc(O)c(C(=O)O)c1	> 42 µM (inactive)
COc1ccc2c(c1)OC[C@H]1[C@H]2N2C(=O)c3cc(F)ccc3NC(=O)[C@@]2(C)[C@H]1c1ccccc1	> 42 µM (inactive)
Cc1ccc2nc3c(cc(C(=O)NCCN4CCOCC4)c(=N)n3CCCN3CCOCC3)c(=O)n2c1	> 42 µM (inactive)
CCc1ccc2c(c1)C(c1ccc([N+](=O)[O-])cc1)=NNC(c1ccc(C)cc1)=N2	> 42 µM (inactive)
